Measurements reported in US20090215752A1, “Compounds, preparation and therapeutic use thereof” (priority 2005, published 2009).

How the values were obtained:
[1] = molecular target: T1, PDE3 (Bos taurus, UniProt A0A3Q1M1E8); test: Selectivity: inhibition of PDE3 (radioenzymatic assay); format: biochemical, bovine; details: Table 2; 10 μM compound; read-out: PDE3 percentage inhibition at 10 μM
T1 sequence (A0A3Q1M1E8 1-1126): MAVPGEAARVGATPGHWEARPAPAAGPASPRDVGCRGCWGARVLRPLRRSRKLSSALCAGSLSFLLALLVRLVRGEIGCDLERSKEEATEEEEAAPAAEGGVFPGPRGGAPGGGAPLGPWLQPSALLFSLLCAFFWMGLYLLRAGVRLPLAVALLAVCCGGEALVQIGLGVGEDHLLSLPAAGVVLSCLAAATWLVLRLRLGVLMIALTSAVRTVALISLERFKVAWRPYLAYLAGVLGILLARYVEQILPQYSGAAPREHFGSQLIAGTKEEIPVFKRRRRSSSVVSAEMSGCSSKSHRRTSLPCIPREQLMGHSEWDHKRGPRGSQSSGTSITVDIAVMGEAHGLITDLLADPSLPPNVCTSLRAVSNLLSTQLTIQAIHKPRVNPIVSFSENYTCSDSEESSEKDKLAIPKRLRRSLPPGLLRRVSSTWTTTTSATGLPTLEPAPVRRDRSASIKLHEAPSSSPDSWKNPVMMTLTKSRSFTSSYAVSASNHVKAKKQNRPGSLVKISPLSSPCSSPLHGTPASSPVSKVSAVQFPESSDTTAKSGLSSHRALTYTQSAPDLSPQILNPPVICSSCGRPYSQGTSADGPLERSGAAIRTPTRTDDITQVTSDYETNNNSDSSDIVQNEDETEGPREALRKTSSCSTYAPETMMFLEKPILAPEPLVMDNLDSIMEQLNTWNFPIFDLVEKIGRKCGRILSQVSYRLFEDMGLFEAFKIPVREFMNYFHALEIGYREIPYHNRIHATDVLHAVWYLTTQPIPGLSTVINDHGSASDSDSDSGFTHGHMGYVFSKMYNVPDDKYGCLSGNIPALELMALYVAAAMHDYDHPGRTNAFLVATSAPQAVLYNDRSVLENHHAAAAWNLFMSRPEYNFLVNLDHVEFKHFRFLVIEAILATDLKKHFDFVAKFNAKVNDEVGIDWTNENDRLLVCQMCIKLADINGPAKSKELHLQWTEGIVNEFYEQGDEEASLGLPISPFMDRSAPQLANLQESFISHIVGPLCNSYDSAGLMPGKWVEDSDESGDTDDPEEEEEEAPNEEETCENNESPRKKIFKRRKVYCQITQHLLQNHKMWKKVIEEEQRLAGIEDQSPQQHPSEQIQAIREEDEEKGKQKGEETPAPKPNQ
Experimental: 2.1.1. Isolation of Phosphodiesterases from Smooth Muscle A 3 g segment of bovine aortic media cut into pieces with scissors was homogenized with an ultra-turrax then a potter glass/glass homogenizer in 7 volumes by weight of buffer A containing a protease inhibitor cocktail (20 mM Tris-HCl, 0.25 M saccharose, 2 mM magnesium acetate, 1 mM dithiothreitol, 5 mM EGTA, 2000 U/ml aprotinin, 10 mg/l leupeptin and 10 mg/l soya trypsic inhibitor). The homogenizate was centrifuged at 105,000 g for 1 hour. The supernatant was loaded on a DEAE-Sephacel column (15×1.6 cm) pre-equilibrated with buffer B (buffer A without the saccharose, EGTA and protease inhibitors). The column was washed until there was no detectable absorption at 280 nm, then eluted with a linear gradient of NaCl (0-0.5 M) in buffer B. 3-ml fractions were collected and enzyme activity was determined under the conditions described hereinbelow to localize the different enzymes PDE1, PDE3, PDE4 and PDE5 which were aliquoted and frozen at −80° C. (Lugnier et al., Biochem. Phamacol., 1986, 35: 1746-1751). […]
Cyclic nucleotide phosphodiesterase activity was determined by a radioenzymatic method using tritium-labelled cyclic GMP or AMP (1 μM) as substrate (Lugnier et al., 1986). ^3H-labelled adenosine or guanosine monophosphate formed by hydrolysis of the radiolabelled cyclic nucleotide was then converted to ^3H-labelled adenosine or guanosine in a second reaction with one nucleotidase in excess. […] Nucleoside radioactivity was determined by liquid scintillation counting. […]
(§1) The activity of the compounds was evaluated on other phosphodiesterase isoforms, particularly basal state or calmodulin-activated PDE1 from vascular smooth muscle, PDE3, PDE4 and PDE5 from vascular smooth muscle. The results obtained are presented in Tables 1 and 2 hereinbelow and are expressed as the percentage inhibition of enzymatic activity produced by […] of the test compound.

[2] = molecular target: T2, sigma 2 receptors (Rattus norvegicus, UniProt Q5U3Y7); test: Sigma 2 receptor binding ([3H]DTG + (+)pentazocine); details: [3H]DTG 5 nM + 300 nM (+)pentazocine, rat cerebral cortex, read-out: σ2 percentage inhibition at 10 μM
T2 construct: The sigma 2 receptors were isolated from rat cerebral cortex; from tissue; host or cells: rat cerebral cortex
T2 sequence (Q5U3Y7 1-176): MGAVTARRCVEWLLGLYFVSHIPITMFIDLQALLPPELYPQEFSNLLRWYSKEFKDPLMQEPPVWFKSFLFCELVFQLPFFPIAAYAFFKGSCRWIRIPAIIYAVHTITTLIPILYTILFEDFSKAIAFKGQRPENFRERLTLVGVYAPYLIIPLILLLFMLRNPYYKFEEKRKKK
Experimental: (§2) The sigma 1 receptors were isolated from guinea pig cerebral cortex according to the method described in Bowen et al., 1993.
(§3) Sigma 1 receptor binding was determined by a radioligand method using tritium-labelled (+)pentazocine (2 nM) as substrate (Bowen et al., 1993). Sigma 2 receptor binding was determined by a radioligand method using tritium-labelled DTG (+300 nM (+)pentazocine) (5 nM) as substrate (Bowen et al., 1993). Ligand radioactivity was determined by liquid scintillation counting. For sigma 1 binding evaluation, ligand incubations were carried out for one hundred fifty minutes at 22° C. For sigma 2 binding evaluation, ligand incubations were carried out for one hundred twenty minutes at 22° C. The experiments were conducted in duplicate.
(§4) The specific ligand binding to the sigma receptors was defined as the difference between the total binding and the non specific binding determined in presence of an excess of unlabelled ligand. The results obtained are presented in Table 4 hereinbelow and are expressed as percent of control specific binding and as a percent inhibition of control specific binding obtained in presence of 10 μM of substance.

[3] = molecular target: T3, sigma 1 receptors (Cavia porcellus, UniProt Q60492); test: Sigma 1 receptor binding ([3H](+)pentazocine); details: [3H](+)pentazocine 2 nM, guinea pig cerebral cortex, read-out: σ1 percentage inhibition at 10 μM
T3 construct: The sigma 1 receptors were isolated from guinea pig cerebral cortex; from tissue; host or cells: guinea pig cerebral cortex
Experimental: as §2, §3, §4

[4] = system: PDE4; test: Selectivity: inhibition of PDE4 (radioenzymatic assay); format: biochemical, bovine; details: Table 2
Experimental: 2.1.1. Isolation of Phosphodiesterases from Smooth Muscle A 3 g segment of bovine aortic media cut into pieces with scissors was homogenized with an ultra-turrax then a potter glass/glass homogenizer in 7 volumes by weight of buffer A containing a protease inhibitor cocktail (20 mM Tris-HCl, 0.25 M saccharose, 2 mM magnesium acetate, 1 mM dithiothreitol, 5 mM EGTA, 2000 U/ml aprotinin, 10 mg/l leupeptin and 10 mg/l soya trypsic inhibitor). The homogenizate was centrifuged at 105,000 g for 1 hour. The supernatant was loaded on a DEAE-Sephacel column (15×1.6 cm) pre-equilibrated with buffer B (buffer A without the saccharose, EGTA and protease inhibitors). The column was washed until there was no detectable absorption at 280 nm, then eluted with a linear gradient of NaCl (0-0.5 M) in buffer B. 3-ml fractions were collected and enzyme activity was determined under the conditions described hereinbelow to localize the different enzymes PDE1, PDE3, PDE4 and PDE5 which were aliquoted and frozen at −80° C. (Lugnier et al., Biochem. Phamacol., 1986, 35: 1746-1751). PDE2 was isolated from human platelets, provided by Etablissement Français du Sang-Alsace, according to Kameni Tcheudji J F et al., (J. Mol. Biol. 2001; 310: 181-791), and stored until use at −80° C. in small aliquots.
Cyclic nucleotide phosphodiesterase activity was determined by a radioenzymatic method using tritium-labelled cyclic GMP or AMP (1 μM) as substrate (Lugnier et al., 1986). ^3H-labelled adenosine or guanosine monophosphate formed by hydrolysis of the radiolabelled cyclic nucleotide was then converted to ^3H-labelled adenosine or guanosine in a second reaction with […] in excess. The nucleoside formed was separated from the nucleotides by anion exchange chromatography. Nucleoside radioactivity was determined by liquid scintillation counting. Enzymatic incubations were carried out under conditions allowing no more than 15% hydrolysis of the substrate; each point was performed in duplicate.
as §1

T3 sequence (Q60492 whole entry): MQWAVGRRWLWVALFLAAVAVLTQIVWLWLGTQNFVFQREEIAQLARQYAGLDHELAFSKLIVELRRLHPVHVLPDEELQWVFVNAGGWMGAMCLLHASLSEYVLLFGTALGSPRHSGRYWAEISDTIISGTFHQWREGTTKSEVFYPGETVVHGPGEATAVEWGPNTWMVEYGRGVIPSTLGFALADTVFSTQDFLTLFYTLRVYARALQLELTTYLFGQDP

COc1cc2c(c(OC)c1-c1ccccc1)C(c1cccc(C(N)=O)c1)=NCC(=O)N2C [Compound 17, 3-(6,8-Dimethoxy-1-methyl-2-oxo-7-phenyl-2,3-dihydro-1H-benzo[e][1,4]diazepin-5-yl)-benzamide]
inhibition at 10 µM [1]: 20%
inhibition at 10 µM [2]: 93%
inhibition at 10 µM [3]: 93%
PDE4 percentage inhibition at 10 μM ([4]; 10 μM compound): 23%
IC50 ([4]; value in square brackets): 47 µM
